According to ChEMBL document CHEMBL4219147, “Design, synthesis, and structure-activity relationships of novel 4,7,12,12a-tetrahydro-5H-thieno[3',2':3,4]pyrido[1,2-b]isoquinoline and 5,8,12,12a-tetrahydro-6H-thieno[2',3':4,5]pyrido[2,1-a]isoquinoline derivatives as cellular activators of adenosine 5'-monophosphate-activated protein kinase …” (Bioorg Med Chem, 2018):
The source made the active and inactive calls. The rule behind the calls is not given here.

Assays:
[1] = Cytotoxicity against Sprague-Dawley rat L6 cells assessed as cell viability at 5 uM after 12 hrs by SRB assay (reference value: 100 +/- 1.8%); assay type: cell-based; conditions: read-out: Activity
[2] = species on record: Rattus norvegicus; assay: Activation of AMPK in Sprague-Dawley rat primary hepatocytes assessed as inhibition of gluconeogenesis by measuring glucose production at 5 uM after 6 hrs by colorimetric assay (reference value: 100 +/- 3.5%); set-up: scale not given: the % may be the effect or the level left
[3] = system: L6; assay: Activation of AMPK in differentiated Sprague-Dawley rat L6 myotube cells assessed as glucose consumption at 5 uM after 12 hrs by colorimetric assay (reference value: 100 +/- 1.8%); assay type: cell-based
[4] = system: L6; assay: Inhibition of mitochondrial respiratory complex 1 in differentiated Sprague-Dawley rat L6 myotube cells assessed as mitochondrial membrane potential at 20 uM after 40 to 60 mins by JC-1 staining based fluorescence assay (reference value: 100 +/- 1.6%); assay type: cell-based; set-up: scale not given: the % may be the effect or the level left
[5] = species on record: Rattus norvegicus; assay: Activation of AMPK in Sprague-Dawley rat primary hepatocytes assessed as inhibition of gluconeogenesis by measuring glucose production after 6 hrs by colorimetric assay
[6] = species on record: Rattus norvegicus; assay: Activation of AMPK in Sprague-Dawley rat primary hepatocytes assessed as inhibition of gluconeogenesis by measuring glucose production at 20 uM after 6 hrs by colorimetric assay (reference value: 100 +/- 3.5%); set-up: scale not given: the % may be the effect or the level left
[7] = system: L6; assay: Activation of AMPK in differentiated Sprague-Dawley rat L6 myotube cells assessed as increase in glucose consumption at 5 to 20 uM after 12 hrs by colorimetric assay relative to control; assay type: cell-based
[8] = system: L6; assay: Activation of AMPK in Sprague-Dawley rat L6 myotube cells assessed as increase in acetyl-CoA carboxylase phosphorylation at Ser79 residues at 5 to 20 uM after 1 hr by Western blot analysis; assay type: cell-based
[9] = system: L6; assay: Activation of AMPK in differentiated Sprague-Dawley rat L6 myotube cells assessed as glucose consumption at 10 uM after 12 hrs by colorimetric assay (reference value: 100 +/- 1.8%); assay type: cell-based
[10] = Cytotoxicity against Sprague-Dawley rat L6 cells assessed as cell viability at 20 uM after 12 hrs by SRB assay (reference value: 100 +/- 1.8%); assay type: cell-based; conditions: read-out: Activity
[11] = system: L6; assay: Inhibition of mitochondrial respiratory complex 1 in differentiated Sprague-Dawley rat L6 myotube cells assessed as mitochondrial membrane potential at 10 uM after 40 to 60 mins by JC-1 staining based fluorescence assay (reference value: 100 +/- 1.6%); assay type: cell-based; set-up: scale not given: the % may be the effect or the level left
[12] = system: L6; assay: Upregulation of AMPKalpha phosphorylation at Thr172 residues in Sprague-Dawley rat L6 myotube cells at 5 to 20 uM after 1 hr by Western blot analysis; assay type: cell-based
[13] = system: L6; assay: Activation of AMPK in differentiated Sprague-Dawley rat L6 myotube cells assessed as glucose consumption at 20 uM after 12 hrs by colorimetric assay (reference value: 100 +/- 1.8%); assay type: cell-based
[14] = species on record: Rattus norvegicus; assay: Activation of AMPK in Sprague-Dawley rat primary hepatocytes assessed as inhibition of gluconeogenesis by measuring glucose production at 10 uM after 6 hrs by colorimetric assay (reference value: 100 +/- 3.5%); set-up: scale not given: the % may be the effect or the level left
[15] = Cytotoxicity against Sprague-Dawley rat L6 cells assessed as cell viability at 10 uM after 12 hrs by SRB assay (reference value: 100 +/- 1.8%); assay type: cell-based; conditions: read-out: Activity
[16] = system: L6; assay: Inhibition of mitochondrial respiratory complex 1 in differentiated Sprague-Dawley rat L6 myotube cells assessed as mitochondrial membrane potential at 5 uM after 40 to 60 mins by JC-1 staining based fluorescence assay (reference value: 100 +/- 1.6%); assay type: cell-based; set-up: scale not given: the % may be the effect or the level left
[17] = system: L6; assay: Activation of AMPK in differentiated Sprague-Dawley rat L6 myotube cells assessed as increase in glucose consumption at 5 to 20 uM after 12 hrs by colorimetric assay relative to berberine; assay type: cell-based
[18] = system: L6; assay: Activation of AMPK in differentiated Sprague-Dawley rat L6 myotube cells assessed as increase in glucose consumption at 10 uM after 12 hrs by colorimetric assay relative to control; assay type: cell-based

Compound	viability at 12 h, 5 µM [1] [%]	Activity [2] [%]	Activity [3] [%]	Activity [4] [%]	inhibition [5]	Activity [6] [%]	fold change (FC) [7]	Activity [8]	Activity [9] [%]	viability at 12 h, 20 µM [10] [%]	Activity [11] [%]	Activity [12]	Activity [13] [%]	Activity [14] [%]	viability at 12 h, 10 µM [15] [%]	Activity [16] [%]	fold change (FC) [17]	fold change (FC) [18]
COc1ccc(OC)c2c1CC1c3cc(Cc4ccc(F)cc4)sc3CCN1C2 (stereo not given)	98.8	96.7	216	62.9	Dose-dependent effect	60.6	2.3 to 2.9	Active	238	100	76	Active	235	83.4	98.2	82.8	2.3	–
COc1ccc(OC)c2c1CC1c3cc(Cc4cc(OC)c(OC)c(OC)c4)sc3CCN1C2 (stereo not given)	95.3	–	174	–	–	–	1.9	–	188	104	–	–	184	–	104	–	–	–
COc1ccc(OC)c2c1CC1c3cc(Cc4ccc(N(C)C)cc4)sc3CCN1C2 (stereo not given)	110	–	200	–	–	–	2	–	201	107	–	–	230	–	108	–	–	–
COc1ccc(OC)c2c1CC1c3cc(Cc4ccccn4)sc3CCN1C2 (stereo not given)	104	–	140	–	–	–	1.3 to 1.5	–	148	103	–	–	172	–	103	–	–	–
COc1cccc(Cc2cc3c(s2)CCN2Cc4c(OC)ccc(OC)c4CC32)c1 (stereo not given)	100	73.2	245	59.2	Dose-dependent effect	38.1	2.1 to 2.7	Active	242	100	72.8	Active	243	58.8	94.9	76.3	2.3	–
COc1ccc(OC)c2c1CC1c3cc(Cc4ccc(S(C)(=O)=O)cc4)sc3CCN1C2 (stereo not given)	101	–	128	–	–	–	1.1	–	106	101	–	–	97.9	–	102	–	–	–
COc1ccc(OC)c2c1CC1c3cc(Cc4ccc(C(F)(F)F)cc4)sc3CCN1C2 (stereo not given)	102	–	156	–	–	–	1.9	–	189	100	–	–	229	–	101	–	–	–
C=CCOc1ccc(Cc2cc3c(s2)CCN2Cc4c(OC)ccc(OC)c4CC32)cc1 (stereo not given)	99.4	58.7	213	54	Dose-dependent effect	49	2.1 to 2.7	Active	249	98.7	72.8	Active	265	49.6	102	83.7	2.3	–
N#CC(C#N)=NNc1cccc(Cl)c1	–	–	–	–	–	–	–	–	–	–	42.9	–	–	–	–	–	–	–
COc1ccc(OC)c2c1CC1c3cc(Cc4ccc(N5CCCCC5)cc4)sc3CCN1C2 (stereo not given)	103	51.6	214	58.5	Dose-dependent effect	43	2.5	Active	252	102	71.7	Active	270	46.7	101	82.8	–	–
COc1ccc(OC)c2c1CC1c3cc(Cc4ccc(N5CCN(C)CC5)cc4)sc3CCN1C2 (stereo not given)	106	–	168	–	–	–	1.7	–	169	107	–	–	181	–	104	–	–	–
COc1ccc(OC)c2c1CC1c3cc(Cc4ccc(N5CCOCC5)cc4)sc3CCN1C2 (stereo not given)	97.7	–	97.1	–	–	–	1.4	–	137	98.9	–	–	157	–	99.2	–	–	–
CCc1cc2c(s1)CC1c3cc4c(cc3CCN1C2)OCO4 (stereo not given)	99.5	–	212	–	–	–	–	–	219	102	–	–	227	–	102	–	–	2.2
COc1ccc(OC)c2c1CC1c3cc(C(C)c4ccccc4)sc3CCN1C2 (stereo not given)	101	43.4	244	66	Dose-dependent effect	36	2.3 to 2.9	Active	264	101	76.6	Active	246	39.5	102	86.6	2.3	–
COc1ccc(OC)c2c1CC1c3cc(Cc4ccc(Br)cc4)sc3CCN1C2 (stereo not given)	101	–	169	–	–	–	1.9	–	187	101	–	–	242	–	105	–	–	–
COc1ccc(OC)c2c1CC1c3cc(Cc4ccncc4)sc3CCN1C2 (stereo not given)	105	–	111	–	–	–	1.3 to 1.5	–	130	104	–	–	153	–	110	–	–	–
COc1ccc(OC)c2c1CC1c3cc(Cc4nccs4)sc3CCN1C2 (stereo not given)	104	–	134	–	–	–	1.3 to 1.5	–	152	103	–	–	167	–	103	–	–	–
COc1ccc(OC)c2c1CC1c3cc(Cc4cccc(C)c4)sc3CCN1C2 (stereo not given)	99.6	82.7	237	67.6	Dose-dependent effect	47.5	–	Active	266	101	77.8	Active	251	65.6	99	84.5	–	–
COc1ccc(OC)c2c1CC1c3cc(Cc4ccc(C)cc4)sc3CCN1C2 (stereo not given)	100	73.3	222	49	Dose-dependent effect	55.7	2.3 to 2.9	Active	230	107	57.7	Active	238	65	106	67.7	2.3	–
COc1ccc(OC)c2c1CC1c3cc(Cc4ccc(NC(C)=O)cc4)sc3CCN1C2 (stereo not given)	96.2	–	121	–	–	–	1.3	–	130	94.9	–	–	142	–	97.2	–	–	–
COc1ccc(OC)c2c1CC1c3cc(Cc4ccc5c(c4)CCO5)sc3CCN1C2 (stereo not given)	101	–	200	–	–	–	2.1 to 2.7	–	212	103	–	–	212	–	103	–	–	–
c1cc2c(s1)CC1c3cc4c(cc3CCN1C2)OCO4 (stereo not given)	98.6	–	132	–	–	–	–	–	134	102	–	–	133	–	99.7	–	–	1.3
